Here are results for 5 compounds from PubChem BioAssay AID1918955 (Molecular Pharmacology Branch, DTP, NCI, 2023).

The assay has as its system NCI/ADR-RES complex spheroid viability. In words: Anticancer human tumor NCI/ADR-RES cell line growth inhibition.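 On all read-outs here: spheroids exposed to compounds for 7 days.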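 On viability, T/C: 100% = DMSO vehicle treated spheroids.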 Particulars: for viability, T/C: stronger effect = lower value. In short, it runs like this:
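Multicellular complex spheroids of tumor cells with human endothelial cells (HUVEC) and mesenchymal stem cells; the LSD1 inhibitor iadademstat was combined with standard-of-care or investigational agents. Top concentration at or near clinical Cmax, half-log dilutions; final DMSO ≤0.25%.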

Setting [1] is: curve of first compound, second compound 0.1 µM.
Where [2] appears, read: curve of first compound, second compound 0.316 µM.
Setting [3] is: curve of first compound, second compound 1 µM.
Where [4] appears, read: curve of first compound, second compound 3.16 µM.
[5] abbreviates: curve of first compound, second compound 10 µM.
[6] abbreviates: second compound 0.1 µM, first compound 0.000316 µM.
Where [7] appears, read: second compound 0.1 µM, first compound 0.001 µM.
[8] abbreviates: second compound 0.1 µM, first compound 0.00316 µM.
The mark [9] stands for this setting: second compound 0.1 µM, first compound 0.01 µM.
[10] abbreviates: second compound 0.1 µM, first compound 0.0316 µM.
The mark [11] stands for this setting: second compound 0.1 µM, first compound 0.1 µM.
The mark [12] stands for this setting: second compound 0.316 µM, first compound 0.000316 µM.
Setting [13] is: second compound 0.316 µM, first compound 0.001 µM.
[14] abbreviates: second compound 0.316 µM, first compound 0.00316 µM.
[15] abbreviates: second compound 0.316 µM, first compound 0.01 µM.
The mark [16] stands for this setting: second compound 0.316 µM, first compound 0.0316 µM.
[17] abbreviates: second compound 0.316 µM, first compound 0.1 µM.
The mark [18] stands for this setting: second compound 1 µM, first compound 0.000316 µM.
Where [19] appears, read: second compound 1 µM, first compound 0.001 µM.
Where [20] appears, read: second compound 1 µM, first compound 0.00316 µM.
The mark [21] stands for this setting: second compound 1 µM, first compound 0.01 µM.
Setting [22] is: second compound 1 µM, first compound 0.0316 µM.
Where [23] appears, read: second compound 1 µM, first compound 0.1 µM.
The mark [24] stands for this setting: second compound 3.16 µM, first compound 0.000316 µM.
[25] abbreviates: second compound 3.16 µM, first compound 0.001 µM.
The mark [26] stands for this setting: second compound 3.16 µM, first compound 0.00316 µM.
The mark [27] stands for this setting: second compound 3.16 µM, first compound 0.01 µM.
Setting [28] is: second compound 3.16 µM, first compound 0.0316 µM.
[29] abbreviates: second compound 3.16 µM, first compound 0.1 µM.
Setting [30] is: second compound 10 µM, first compound 0.000316 µM.
[31] abbreviates: second compound 10 µM, first compound 0.001 µM.
Where [32] appears, read: second compound 10 µM, first compound 0.00316 µM.
Where [33] appears, read: second compound 10 µM, first compound 0.01 µM.
[34] abbreviates: second compound 10 µM, first compound 0.0316 µM.
[35] abbreviates: second compound 10 µM, first compound 0.1 µM.

Where “and” joins values, the source holds several entries; their conditions need not be identical. Identical values can stand only once.

For the compound `Nc1ncn(C2CC(O)C(CO)S2)c(=O)n1` (stereo unspecified), the viability, T/C reads like this: (compound 0.000949 µM) 86.4% and 84.4%; (compound 0.003 µM) 75.9% and 67.9%; (compound 0.00949 µM) 53.8% and 40.1%; (compound 0.03 µM) 38.7% and 27.5%; (compound 0.0949 µM) 21.2% and 11.8%; (compound 0.3 µM) 6.02% and 3.16%. Moreover, the 50% inhibitory concentration (IC50) (curve of compound) is 14.1 nM and 6.82 nM.

For the compound `Nc1ccn(C2OC(CO)C(O)C2(F)F)c(=O)n1` (stereo unspecified), the viability, T/C is 8.59% and 3.05% (compound 0.000949 µM); 3.76% and 3.9% (compound 0.003 µM); 3.95% and 4.1% (compound 0.00949 µM); 3.55% and 2.02% (compound 0.03 µM); 3.71% and 1.86% (compound 0.0949 µM); 1.91% and 1.26% (compound 0.3 µM). The IC50 (curve of compound) was below 0.949 nM.

In the case of `COc1cc(C2c3cc4c(cc3C(OC3OC5COC(C)OC5C(O)C3O)C3COC(=O)C23)OCO4)cc(OC)c1O` (stereo unspecified), the viability, T/C was 96.8% and 107% (compound 0.00949 µM); 100% and 104% (compound 0.03 µM); 96.4% and 104% (compound 0.0949 µM); 95.8% and 105% (compound 0.3 µM); 96.1% and 98.4% (compound 0.949 µM); 93.1% and 90.2% (compound 3 µM). Also, the IC50 (curve of compound) was above 3000 nM.

In the case of `CC[C@@]1(O)C(=O)OCc2c1cc1n(c2=O)Cc2cc3c(CN(C)C)c(O)ccc3nc2-1` + NC1CCC(NC2CC2c2ccccc2)CC1, the concentration for half-maximal inhibition (IC50) runs as follows: under setting [1], 8.31 nM; under setting [2], 8.18 nM; under setting [3], 9.09 nM; under setting [4], 7.45 nM; under setting [5], 5.56 nM. In addition, the viability, T/C runs as follows: under setting [6], 104%; under setting [7], 97.8%; under setting [8], 86.5%; under setting [9], 43.4%; under setting [10], 9.03%; under setting [11], 3.21%. In addition, the viability, T/C by setting is: under setting [12], 118%; under setting [13], 116%; under setting [14], 86.7%; under setting [15], 42.9%; under setting [16], 10.8%; under setting [17], 2.57%. The viability, T/C reads like this: under setting [18], 103%; under setting [19], 103%; under setting [20], 92.9%; under setting [21], 46.2%; under setting [22], 8.05%; under setting [23], 2.63%. The viability, T/C under setting [24] is 108%; the viability, T/C under setting [25] is 98.8%; the viability, T/C under setting [26] is 91.3%; the viability, T/C under setting [27] was 35.6%; the viability, T/C under setting [28] was 10.1%; the viability, T/C under setting [29] is 4.55%. The viability, T/C under setting [30] is 98.5%; the viability, T/C under setting [31] was 95.3%; the viability, T/C under setting [32] is 66.8%; the viability, T/C under setting [33] was 32%; the viability, T/C under setting [34] was 7.06%; the viability, T/C under setting [35] is 2.23%.

Turning to `CC(C)CC(NC(=O)CNC(=O)c1cc(Cl)ccc1Cl)B1OC(=O)CC(CC(=O)O)(C(=O)O)O1` (stereo unspecified) + NC1CCC(NC2CC2c2ccccc2)CC1, the IC50 by setting is: under setting [1], 28.8 nM; under setting [2], 28.8 nM; under setting [3], 27.4 nM; under setting [4], 20.7 nM; under setting [5], 14.2 nM. The viability, T/C is 104% under setting [6]; 106% under setting [7]; 107% under setting [8]; 90.4% under setting [9]; 46.6% under setting [10]; 8.2% under setting [11]. Further, the viability, T/C runs as follows: under setting [12], 105%; under setting [13], 109%; under setting [14], 103%; under setting [15], 92%; under setting [16], 46.2%; under setting [17], 4.8%. Further, the viability, T/C is, setting by setting: under setting [18], 100%; under setting [19], 102%; under setting [20], 102%; under setting [21], 91.1%; under setting [22], 44.2%; under setting [23], 2.51%. Moreover, the viability, T/C by setting is: under setting [24], 92.3%; under setting [25], 98.3%; under setting [26], 104%; under setting [27], 83.5%; under setting [28], 30.1%; under setting [29], 3.89%. The viability, T/C under setting [30] was 91.4%; the viability, T/C under setting [31] is 89.2%; the viability, T/C under setting [32] is 87.8%; the viability, T/C under setting [33] was 62.1%; the viability, T/C under setting [34] is 21%; the viability, T/C under setting [35] is 4.15%.
